This is an account of results in ChEMBL document CHEMBL2375273, “Design, synthesis and evaluation of tacrine-flurbiprofen-nitrate trihybrids as novel anti-Alzheimer's disease agents” (Bioorg Med Chem, 2013).

For data set [1], the target named is T1, Cholinesterase (Equus caballus, UniProt P81908).
Description: Inhibition of equine serum BChE using acetylcholine as substrate preincubated for 5 mins prior to substrate addition measured after 2 mins by Ellman's method
Data set [2] deals with T2, Acetylcholinesterase (Electrophorus electricus, UniProt O42275).
Description: Inhibition of electric eel AChE using acetylcholine as substrate preincubated for 5 mins prior to substrate addition measured after 2 mins by Ellman's method
The conditions of data set [3]: buffer, pH 7.4, 4 h.
Description: Chemical stability of the compound in phosphate buffer assessed as nitrite release after 4 hrs at pH 7.4 by Griess method
The nature of data set [4]: Cytotoxicity against Wistar rat primary cortical neurons at 1 uM after 24 hrs by MTT assay. The note with it: cerebral cortex neuron. The class given is cell-based.
Data set [5] deals with T1, Cholinesterase. In words: Competitive inhibition of equine serum BChE by Lineweaver Burk reciprocal plot analysis in presence of acetylcholine.
The target in data set [6] is T2, Acetylcholinesterase. In words: Mixed-type inhibition of electric eel AChE by Lineweaver Burk reciprocal plot analysis in presence of acetylcholine.

T2 sequence (O42275 whole entry): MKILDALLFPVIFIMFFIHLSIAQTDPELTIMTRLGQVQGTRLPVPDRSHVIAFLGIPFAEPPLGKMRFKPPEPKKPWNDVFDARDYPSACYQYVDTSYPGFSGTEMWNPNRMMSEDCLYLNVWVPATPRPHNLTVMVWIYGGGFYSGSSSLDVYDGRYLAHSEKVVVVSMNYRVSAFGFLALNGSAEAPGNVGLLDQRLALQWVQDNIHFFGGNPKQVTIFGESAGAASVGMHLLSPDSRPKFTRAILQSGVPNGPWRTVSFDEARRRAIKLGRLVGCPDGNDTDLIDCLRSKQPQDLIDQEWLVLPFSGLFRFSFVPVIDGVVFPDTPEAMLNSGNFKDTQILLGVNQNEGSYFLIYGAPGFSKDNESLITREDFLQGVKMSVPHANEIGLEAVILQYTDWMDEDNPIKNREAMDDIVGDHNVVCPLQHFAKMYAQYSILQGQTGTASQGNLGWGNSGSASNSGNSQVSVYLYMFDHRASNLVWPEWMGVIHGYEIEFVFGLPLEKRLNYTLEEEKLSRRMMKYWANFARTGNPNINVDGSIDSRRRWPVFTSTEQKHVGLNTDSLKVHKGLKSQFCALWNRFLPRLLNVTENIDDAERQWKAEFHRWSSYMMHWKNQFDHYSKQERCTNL
T1 sequence (P81908 whole entry): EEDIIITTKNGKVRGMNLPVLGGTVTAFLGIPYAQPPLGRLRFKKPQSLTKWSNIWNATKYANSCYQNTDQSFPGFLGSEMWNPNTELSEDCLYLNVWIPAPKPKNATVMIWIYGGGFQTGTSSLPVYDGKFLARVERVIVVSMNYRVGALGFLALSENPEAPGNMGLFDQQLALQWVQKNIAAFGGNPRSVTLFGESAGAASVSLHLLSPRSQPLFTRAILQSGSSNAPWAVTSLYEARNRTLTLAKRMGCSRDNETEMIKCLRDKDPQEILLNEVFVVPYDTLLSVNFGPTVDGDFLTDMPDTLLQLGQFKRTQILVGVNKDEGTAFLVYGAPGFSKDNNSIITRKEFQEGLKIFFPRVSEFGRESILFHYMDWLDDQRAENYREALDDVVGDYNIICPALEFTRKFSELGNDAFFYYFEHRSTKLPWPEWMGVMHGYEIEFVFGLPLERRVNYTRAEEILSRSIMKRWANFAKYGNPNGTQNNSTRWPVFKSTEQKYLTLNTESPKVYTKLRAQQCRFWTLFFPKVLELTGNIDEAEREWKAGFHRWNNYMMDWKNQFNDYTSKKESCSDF

One may read the IC50 as the midpoint of a concentration-inhibition curve. In the case of `CC(C(=O)NCCCCCCNc1c2c(nc3ccccc13)CCCC2)c1ccc(-c2ccccc2)c(F)c1` (configuration not stated), the IC50 was found to be 3.7 nM against Cholinesterase [1] and 19.3 nM at Acetylcholinesterase [2].

For the molecule `CC(C(=O)NCCCCCCCCNc1c2c(nc3ccccc13)CCCC2)c1ccc(-c2ccc(OCCCCCCO[N+](=O)[O-])cc2)c(F)c1` (configuration not stated), the Drug metabolism in data set [3] amounted to 0.34 µg/mL. Further, the IC50 against Cholinesterase [1] stood at 1.5 nM; at Acetylcholinesterase [2], 226 nM.

As to `CC(C(=O)NCCCCCCNc1c2c(nc3ccccc13)CCCC2)c1ccc(-c2ccc(OCCCO[N+](=O)[O-])cc2)c(F)c1` (configuration not stated), the Drug metabolism in data set [3] came out at 0.353 µg/mL. Further, the concentration for half-maximal inhibition (IC50) at Cholinesterase [1] stood at 2.4 nM; on Acetylcholinesterase [2], 18.7 nM.

Molecule `CC(C(=O)NCCCCCCNc1c2c(nc3ccccc13)CCCC2)c1ccc(-c2ccc(OCCCCO[N+](=O)[O-])cc2)c(F)c1` (configuration not stated) had a Drug metabolism in data set [3] of 0.36 µg/mL. For the same molecule, the IC50 is 1.3 nM on Cholinesterase [1] and 27.4 nM at Acetylcholinesterase [2].

On to `O=[N+]([O-])O[C@@H]1CO[C@H]2[C@@H]1OC[C@@H]2O` [ISOSORBIDE MONONITRATE], for which the Drug metabolism in data set [3] was 0.412 µg/mL.

Molecule `CC(C(=O)NCCCCCCCCNc1c2c(nc3ccccc13)CCCC2)c1ccc(-c2ccc(OCCCO[N+](=O)[O-])cc2)c(F)c1` (configuration not stated) registered a Drug metabolism in data set [3] of 0.353 µg/mL. Further, the IC50 was 1.6 nM at Cholinesterase [1] and 30.6 nM on Acetylcholinesterase [2].

Turning to `CC(C(=O)NCCCCCCNc1c2c(nc3ccccc13)CCCC2)c1ccc(-c2ccc(OCCCCCCO[N+](=O)[O-])cc2)c(F)c1` (configuration not stated), in data set [4], the Activity entry is “Non-toxic”. Also, in data set [3], the Drug metabolism was found to be 0.283 µg/mL. Besides, the half-maximal inhibitory concentration (IC50) worked out at 0.6 nM against Cholinesterase [1] and 31.1 nM on Acetylcholinesterase [2].

For `CC(C(=O)NCCCCCCCCNc1c2c(nc3ccccc13)CCCC2)c1ccc(-c2ccc(OCCCCO[N+](=O)[O-])cc2)c(F)c1` (configuration not stated), in data set [3], the Drug metabolism stood at 0.36 µg/mL. The half-maximal inhibitory concentration (IC50) was determined as 1.3 nM against Cholinesterase [1] and 70.9 nM on Acetylcholinesterase [2].

Regarding `CC(C(=O)NCCCCCCCCNc1c2c(nc3ccccc13)CCCC2)c1ccc(-c2ccccc2)c(F)c1` (configuration not stated), the IC50 is 2.1 nM against Cholinesterase [1] and 34.5 nM at Acetylcholinesterase [2].

Take `CC(C(=O)NCCCCCCCCNc1c2c(nc3ccccc13)CCCC2)c1ccc(-c2ccc(OCCO[N+](=O)[O-])cc2)c(F)c1` (configuration not stated): the Drug metabolism in data set [3] came out at 0.565 µg/mL. The 50% inhibitory concentration (IC50) against Cholinesterase [1] worked out at 1 nM; against Acetylcholinesterase [2], 12.5 nM.

Usually Ki stands for a dissociation constant, usually derived from enzyme kinetics or from competition with a known ligand. As to `CC(C(=O)NCCCCCCNc1c2c(nc3ccccc13)CCCC2)c1ccc(-c2ccc(OCCO[N+](=O)[O-])cc2)c(F)c1` (configuration not stated), in data set [3], the Drug metabolism came out at 0.348 µg/mL. Further, the IC50 against Cholinesterase [1] was 2.5 nM; at Acetylcholinesterase [2], 9.1 nM. Also, the Ki at Cholinesterase [5] stood at 1.7 nM; on Acetylcholinesterase [6], 16.1 nM.
